Literature values as cited in publication PMC9147171, “Pharmacokinetic/Pharmacodynamic Evaluation of a New Purine-2,6-Dione Derivative in Rodents with Experimental Autoimmune Diseases” (Pharmaceutics, 2022).
Like-named read-outs stand apart in the source and are kept apart here.

What was measured:
PDE7A = details: read-out: IC50 (µM) Against PDE Isoform PDE7A; cited from earlier work
hrPDE1B = biological target: T1, hrPDE1B (Homo sapiens, UniProt Q01064); set-up: method as in PMID 31899535; details: PDE1B; read-out: IC50 (µM) Against PDE Isoform (CV%) PDE1B; cited from earlier work
T1 construct: purchased SignalChem, Richmond, Canada

hrPDE3A = biological target: T2, hrPDE3A (Homo sapiens, UniProt Q14432); set-up: method as in PMID 31899535; details: PDE3A; read-out: IC50 (µM) Against PDE Isoform (CV%) PDE3A; cited from earlier work
T2 construct: purchased SignalChem, Richmond, Canada

PDE4B = details: read-out: IC50 (µM) Against PDE Isoform PDE4B; cited from earlier work
[1] = rats; from the authors' previous investigations; cited from earlier work
[2] = mice; from the authors' previous investigations; cited from earlier work

T2 sequence (Q14432 whole entry, canonical isoform): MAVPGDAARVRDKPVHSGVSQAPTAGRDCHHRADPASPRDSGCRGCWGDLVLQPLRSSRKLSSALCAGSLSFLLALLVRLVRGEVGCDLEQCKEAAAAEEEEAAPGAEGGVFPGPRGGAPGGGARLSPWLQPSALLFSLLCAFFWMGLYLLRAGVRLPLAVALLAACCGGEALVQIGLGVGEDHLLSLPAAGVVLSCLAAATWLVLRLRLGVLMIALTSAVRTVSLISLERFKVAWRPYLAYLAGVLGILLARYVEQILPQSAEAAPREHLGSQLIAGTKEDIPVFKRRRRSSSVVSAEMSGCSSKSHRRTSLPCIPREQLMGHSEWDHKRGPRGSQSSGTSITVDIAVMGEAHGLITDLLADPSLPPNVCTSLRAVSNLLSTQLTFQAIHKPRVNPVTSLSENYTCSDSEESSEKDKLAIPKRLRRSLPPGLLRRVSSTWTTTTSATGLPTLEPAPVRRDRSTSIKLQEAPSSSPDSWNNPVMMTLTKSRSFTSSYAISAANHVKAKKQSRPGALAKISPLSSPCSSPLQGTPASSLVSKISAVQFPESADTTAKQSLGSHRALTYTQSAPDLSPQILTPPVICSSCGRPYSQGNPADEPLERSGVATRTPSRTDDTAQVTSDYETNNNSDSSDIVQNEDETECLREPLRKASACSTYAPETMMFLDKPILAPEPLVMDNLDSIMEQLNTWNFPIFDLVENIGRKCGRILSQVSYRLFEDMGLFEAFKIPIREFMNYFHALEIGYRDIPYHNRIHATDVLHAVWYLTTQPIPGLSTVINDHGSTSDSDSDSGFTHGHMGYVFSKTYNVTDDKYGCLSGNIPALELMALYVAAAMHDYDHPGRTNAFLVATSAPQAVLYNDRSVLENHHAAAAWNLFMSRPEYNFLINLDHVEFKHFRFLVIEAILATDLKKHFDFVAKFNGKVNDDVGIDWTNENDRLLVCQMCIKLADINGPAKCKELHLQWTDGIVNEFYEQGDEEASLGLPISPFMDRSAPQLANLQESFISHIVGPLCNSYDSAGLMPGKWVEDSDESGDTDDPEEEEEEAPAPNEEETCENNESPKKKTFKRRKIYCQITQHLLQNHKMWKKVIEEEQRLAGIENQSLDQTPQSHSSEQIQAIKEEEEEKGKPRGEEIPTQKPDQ
T1 sequence (Q01064 whole entry, canonical isoform): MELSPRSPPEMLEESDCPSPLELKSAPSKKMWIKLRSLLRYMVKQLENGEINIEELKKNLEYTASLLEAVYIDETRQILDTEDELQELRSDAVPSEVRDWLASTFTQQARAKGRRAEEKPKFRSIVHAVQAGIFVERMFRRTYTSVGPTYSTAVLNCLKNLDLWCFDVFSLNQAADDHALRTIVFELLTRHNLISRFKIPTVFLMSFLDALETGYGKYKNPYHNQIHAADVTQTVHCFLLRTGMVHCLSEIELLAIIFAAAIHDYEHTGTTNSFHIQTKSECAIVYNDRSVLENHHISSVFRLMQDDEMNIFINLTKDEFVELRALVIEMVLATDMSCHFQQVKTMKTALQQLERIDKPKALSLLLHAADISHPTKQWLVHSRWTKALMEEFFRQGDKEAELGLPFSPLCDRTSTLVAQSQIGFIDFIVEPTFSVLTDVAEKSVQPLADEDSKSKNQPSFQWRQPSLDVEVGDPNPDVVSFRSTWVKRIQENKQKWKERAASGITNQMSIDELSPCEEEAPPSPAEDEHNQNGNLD

Row | Compound | IC50 (PDE7A) | IC50 (hrPDE1B) | IC50 (hrPDE3A) | IC50 (PDE4B) | half-life [1] | half-life [2]
1 | Cc1ccc([N+](=O)[O-])cc1S(=O)(=O)N(C)C [BRL—50481] | 2.1 µM |  |  |  |  | 
2 | Cn1c(=O)c2c(nc(NCCc3ccccc3)n2CCCC(=O)NN=Cc2ccccc2O)n(C)c1=O [GRMS-55] | 7.3 µM | 2.5 µM | 13.4 µM | 26.9 µM | around 30 min | around 30 min
